Experiment: Concentration of trehalose dissolved in PBS
Format: physicochemical
Conditions: PBS at 37° C.
Experimental: Also, the maximum concentration of trehalose was set to 50% because the concentration of trehalose dissolved in PBS at 37° C. was about 50%.

concentration of trehalose dissolved in PBS: about 50%
Structure (SMILES): OC[C@H]1O[C@H](O[C@H]2O[C@H](CO)[C@@H](O)[C@H](O)[C@H]2O)[C@H](O)[C@@H](O)[C@@H]1O [trehalose]
